What was measured:
[1] = molecular target: T1, cIAP1 BIR3 (Homo sapiens, UniProt Q13490); test: cIAP1 BIR3 binding assay (DELFIA), displacement of SMAC peptide; conditions: GST-fusion BIR3 domain (aa 256 to 363) 10 nM, SMAC peptide 10 nM; activity of the (S)-isomers
T1 construct: covering amino acids 256 to 363; cIAP1 BIR3; made in house; host or cells: E. coli
Method: Biological Methods XIAP BIR3 and cIAP1 BIR3 Binding Assays (DELFIA)
Peptide […]-Lys(Biotin), representing the N-terminus of mature human SMAC (SMAC peptide), was used as interaction partner in the protein-peptide interaction assay.
BIR3 domains (10 nM) were incubated with SMAC peptide (10 nM) in Assay Buffer (50 mM Tris, 120 mM NaCl, 0.1% BSA, 1 mM DTT, 0.05% TritonX100) for one hour at room temperature in the presence of inhibitiory compounds. The assay mixture was transferred to a strepatvidin coated plate and incubated for one hour at room temperature to allow binding of the biotinylated peptide and associated BIR3 domains to the plate. After several washing steps Eu labeled anti-GST antibody (e.g. Perkin Elmer DELFIA Eu-N1-antiGST AD0250) was added to detect BIR3 domain-SMAC peptide interactions according to Perkin Elmer's instructions. […] Time resolved Europium fluoresecence was measured in a Wallac Victor using Standard assay settings.
DELFIA assay results were plotted against compound concentrations and Software GraphPad Prizm was used to calculate half maximal inhibitory concentrations (IC50 values).

[2] = molecular target: T2, XIAP BIR3 (Homo sapiens, UniProt P98170); test: XIAP BIR3 binding assay (DELFIA), displacement of SMAC peptide; conditions: GST-fusion BIR3 domain (aa 241 to 356) 10 nM, SMAC peptide 10 nM; activity of the (S)-isomers
T2 construct: covering amino acids 241 to 356; XIAP BIR3; made in house; host or cells: E. coli
T2 sequence (P98170 241-356): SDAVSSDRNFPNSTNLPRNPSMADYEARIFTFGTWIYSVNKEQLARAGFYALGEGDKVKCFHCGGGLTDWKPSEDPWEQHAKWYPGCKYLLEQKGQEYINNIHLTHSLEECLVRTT
How it was run: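 Each BIR3 domain (10 nM) incubated with biotinylated N-terminal SMAC peptide (10 nM) and compound for 1 h at room temp in Tris/NaCl buffer with BSA, DTT and Triton X-100. Captured on streptavidin plates; bound BIR3 detected by Eu-labelled anti-GST time-resolved fluorescence, giving IC50 values.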

T1 sequence (Q13490 256-363): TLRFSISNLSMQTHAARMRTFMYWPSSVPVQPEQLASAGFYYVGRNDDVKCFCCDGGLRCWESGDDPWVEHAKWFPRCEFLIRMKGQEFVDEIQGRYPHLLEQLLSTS

Structure (SMILES)	IC50 [1] [nM]	IC50 [2] [nM]
CNC(C)C(=O)Nc1ccc(-c2c(C)nc(N3CCOCC3)nc2C)c(C#Cc2ccc3c(c2)CC(=O)N3C)n1 (stereo not drawn) [Example 87, N-[5-(4,6-dimethyl-2-morpholin-4-ylpyrimidin-5-yl)-6-[2-(1-methyl-2-oxo-3H-indol-5-yl)ethynyl]pyridin-2-yl]-2-(methylamino)propanamide]	1	1450
CNC(C)C(=O)Nc1ccc(-c2c(C)nc3ccccn23)c(C#Cc2ccc(-n3ccnc3)cc2)n1 (stereo not drawn) [Example 88, N-[6-[2-(4-imidazol-1-ylphenyl)ethynyl]-5-(2-methyl-imidazo[1,2-a]pyridin-3-yl)-pyridin-2-yl]-2-(methylamino)-propanamide]	1	207
CNC(C)C(=O)Nc1ccc(-c2c(C)nc3ccccn23)c(C#Cc2cccc3ncccc23)n1 (stereo not drawn) [Example 89, 2-(methylamino)-N-[5-(2-methylimidazo[1,2-a]pyridin-3-yl)-6-(2-quinolin-5-ylethynyl)-pyridin-2-yl]propanamide]	2	92
CNC(C)C(=O)Nc1ccc(-c2c(C)nc3ccccn23)c(C#Cc2ccnc3c(F)cccc23)n1 (stereo not drawn) [Example 93, N-[6-[2-(8-fluoroquinolin-4-yl)-ethynyl]-5-(2-methyl-imidazo[1,2-a]pyridin-3-yl)-pyridin-2-yl]-2-(methylamino)-propanamide]	1	198
CNC(C)C(=O)Nc1ccc(-c2c(-c3ccncc3)nc3cc(C)ccn23)c(C#Cc2ccc3c(c2)OCC(=O)N3C)n1 (stereo not drawn) [Example 94, 2-(methylamino)-N-[6-[2-(4-methyl-3-oxo-1,4-benzoxazin-7-yl)ethynyl]-5-(7-methyl-2-pyridin-4-ylimidazo[1,2-a]-pyridin-3-yl)pyridin-2-yl]-propanamide]	1	107
CNC(C)C(=O)Nc1ccc(-c2c(-c3ccncc3)nc3cc(C)ccn23)c(C#Cc2ccc3nccn3c2)n1 (stereo not drawn) [Example 95, N-[6-(2-imidazo[1,2-a]pyridin-6-ylethynyl)-5-(7-methyl-2-pyridin-4-ylimidazo[1,2-a]-pyridin-3-yl)pyridin-2-yl]-2-(methylamino)propanamide]	1	97
Cc1ccccc1-c1ccc(NC(=O)C(C)N)nc1C#Cc1ccccc1 (stereo not drawn) [Example 108, 2-amino-N-[5-(2-methylphenyl)-6-(2-phenylethynyl)pyridin-2-yl]-propanamide]	175	1610
CC(N)C(=O)Nc1ccc(-c2cccc(C#N)c2)c(C#Cc2ccccc2)n1 (stereo not drawn) [Example 113, 2-amino-N-[5-(3-cyanophenyl)-6-(2-phenylethynyl)pyridin-2-yl]-propanamide]	67	228

Further molecules by falling IC50 [1], results first:

IC50 [1] [nM]	IC50 [2] [nM]	Structure (SMILES)
324	461	CC(N)C(=O)Nc1ccc(-c2cncc(Oc3ccccc3)c2)c(C#Cc2ccccc2)n1 (stereo not drawn) [Example 100, 2-amino-N-[5-(5-phenoxypyridin-3-yl)-6-(2-phenylethynyl)pyridin-2-yl]propanamide]
1	166	CNC(C)C(=O)Nc1ccc(-c2c(C)nc3ccccn23)c(C#Cc2ccc(-n3cccn3)cc2)n1 (stereo not drawn) [Example 90, 2-(methylamino)-N-[5-(2-methylimidazo[1,2-a]pyridin-3-yl)-6-[2-(4-pyrazol-1-ylphenyl)-ethynyl]pyridin-2-yl]propan-amide]
1	172	CNC(C)C(=O)Nc1ccc(-c2c(C)nc3ccccn23)c(C#Cc2cc(C)nc3c(F)cccc23)n1 (stereo not drawn) [Example 92, N-[6-[2-(8-fluoro-2-methylquinolin-4-yl)ethynyl]-5-(2-methylimidazo[1,2-a]pyridin-3-yl)pyridin-2-yl]-2-(methyl-amino)propanamide]
1	83	CNC(C)C(=O)Nc1ccc(-c2c(-c3ccncc3)nc3cc(C)ccn23)c(C#Cc2ccc(OC)c3ncccc23)n1 (stereo not drawn) [Example 96, N-[6-[2-(8-methoxyquinolin-5-yl)ethynyl]-5-(7-methyl-2-pyridin-4-ylimidazo[1,2-a]-pyridin-3-yl)pyridin-2-yl]-2-(methylamino)propanamide]
